Data on 19 compounds can be found in patent US9321790B2, “Pyrimidinone derivatives as antimalarial agents” (SANOFI, priority 2012, dated 2016).

Where only a bound is given, the exact number is not on record here.

In assay [1] the test system is Plasmodium falciparum (strain NF54). The experiment in a line: Antimalarial activity test: growth of Plasmodium falciparum in infected human erythrocytes, 3H-hypoxanthine incorporation. It is filed as cell-based. To be noted: strain NF54 sensitive to chloroquine, 72 h total incubation. The protocol:
The compounds according to the invention underwent pharmacological trials to determine their inhibitory effect on the growth of Plasmodium falciparum (strain NF54 sensitive to inhibition with chloroquine) in an in vitro test using infected human erythrocytes. The growth of the parasites is measured via the incorporation of tritiated hypoxanthine compared with the incorporation in the absence of drug. The tests are performed in 96-well microplates (Falcon™ 96-well microtiter plates, ref. No. 353072) in RPMI 1640 solutions (10.44 g/l) (without hypoxanthine) with HEPES (5.94 g/l), NaHCO3 (2.1 g/l), neomycin ([…])+AlbumaxR II (5 g/l) supplemented with human erythrocytes with a final hematocrit of 1.25% and a final parasitemia of 0.15%.
The stock solution of the compounds is prepared at 10 mg/mL in DMSO. For the test, fresh solutions at the desired concentrations are prepared in RPMI medium. For the test, 100 μl of compound are mixed with 100 μl of infected blood. For the determination of the IC50 values, the compounds are tested in twofold serial dilution.
The plates are incubated at 37° C. under a humid atmosphere with 93% N2, 4% CO2 and 3% O2. After 48 hours, 50 μl of ^3H-hypoxanthine (=0.5 μCi) in RPMI medium are added to each well and incubation is continued for a further 24 hours. Next, the plates are washed with distilled water and the cell lyzate is transferred onto fiberglass filters. The filters are dried and the radioactivity is determined by liquid scintillation. The results in cpm are converted into percentages of inhibition. The inhibitory activity is given by the concentration that inhibits 50% of the growth of the parasite relative to a control without compound.

In another assay the target is human PI3Kα (Homo sapiens (Human), UniProt P42336). The experiment in a line: Human PI3Kα activity test (luciferin/luciferase ATP consumption, KinaseGlo). In kind it is biochemical. To be noted: PI3Kα (p110α/p85α), 50 μM PIP2, 2 μM ATP, 90 minutes; read-out: IC50 Human PI3Kα. On the technique in general: Kinase-Glo reads ATP consumption through a luciferase reaction.
Chain of human PI3Kα (P42336 whole entry): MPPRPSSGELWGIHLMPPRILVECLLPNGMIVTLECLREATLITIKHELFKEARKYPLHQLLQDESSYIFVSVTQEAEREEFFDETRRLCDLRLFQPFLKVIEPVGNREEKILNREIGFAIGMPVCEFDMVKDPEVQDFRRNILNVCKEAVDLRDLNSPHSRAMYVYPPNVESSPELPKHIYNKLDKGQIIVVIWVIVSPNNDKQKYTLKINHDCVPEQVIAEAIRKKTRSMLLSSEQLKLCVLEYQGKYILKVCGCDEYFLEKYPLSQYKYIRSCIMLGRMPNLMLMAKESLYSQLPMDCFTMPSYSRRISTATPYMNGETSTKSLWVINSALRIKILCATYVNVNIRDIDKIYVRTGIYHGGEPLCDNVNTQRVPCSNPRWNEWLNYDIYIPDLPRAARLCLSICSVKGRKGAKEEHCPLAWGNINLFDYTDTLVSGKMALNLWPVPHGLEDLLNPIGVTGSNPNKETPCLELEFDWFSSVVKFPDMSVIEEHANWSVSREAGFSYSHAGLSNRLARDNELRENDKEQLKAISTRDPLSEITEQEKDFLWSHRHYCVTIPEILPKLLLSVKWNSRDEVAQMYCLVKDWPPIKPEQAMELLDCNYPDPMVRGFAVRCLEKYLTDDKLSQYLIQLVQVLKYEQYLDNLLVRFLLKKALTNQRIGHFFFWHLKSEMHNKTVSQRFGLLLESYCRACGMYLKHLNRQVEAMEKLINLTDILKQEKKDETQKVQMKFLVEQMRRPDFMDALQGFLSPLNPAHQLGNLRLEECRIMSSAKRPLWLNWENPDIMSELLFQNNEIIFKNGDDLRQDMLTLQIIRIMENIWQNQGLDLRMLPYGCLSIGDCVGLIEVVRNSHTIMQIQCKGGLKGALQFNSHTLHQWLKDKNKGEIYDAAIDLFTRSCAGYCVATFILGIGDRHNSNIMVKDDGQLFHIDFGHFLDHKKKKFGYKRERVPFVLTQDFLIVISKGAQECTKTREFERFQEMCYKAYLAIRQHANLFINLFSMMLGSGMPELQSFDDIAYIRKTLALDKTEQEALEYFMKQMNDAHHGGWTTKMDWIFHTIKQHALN
Chain of human PI3Kα (P27986 whole entry partner): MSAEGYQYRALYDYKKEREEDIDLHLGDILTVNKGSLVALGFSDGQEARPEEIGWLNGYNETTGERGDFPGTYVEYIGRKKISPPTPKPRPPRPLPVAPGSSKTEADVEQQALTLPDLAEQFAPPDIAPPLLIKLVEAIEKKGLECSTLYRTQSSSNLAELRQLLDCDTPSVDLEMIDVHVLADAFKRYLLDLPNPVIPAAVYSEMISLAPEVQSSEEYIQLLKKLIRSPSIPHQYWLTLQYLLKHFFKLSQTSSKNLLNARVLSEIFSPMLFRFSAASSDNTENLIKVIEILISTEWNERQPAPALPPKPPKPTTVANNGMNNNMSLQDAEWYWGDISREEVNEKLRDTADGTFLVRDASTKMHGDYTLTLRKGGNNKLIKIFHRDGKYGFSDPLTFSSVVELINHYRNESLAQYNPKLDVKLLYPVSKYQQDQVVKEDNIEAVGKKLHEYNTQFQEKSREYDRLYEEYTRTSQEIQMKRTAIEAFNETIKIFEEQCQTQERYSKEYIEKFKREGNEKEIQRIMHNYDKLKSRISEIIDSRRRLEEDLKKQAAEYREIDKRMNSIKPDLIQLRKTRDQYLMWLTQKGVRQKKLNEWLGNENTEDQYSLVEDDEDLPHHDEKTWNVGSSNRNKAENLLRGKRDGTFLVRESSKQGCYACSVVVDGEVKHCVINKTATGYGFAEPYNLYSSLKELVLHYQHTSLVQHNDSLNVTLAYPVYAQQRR
The mark [2] stands for this setting: Plasmodium falciparum, Erythrocyte.

Method for human PI3Kα: The test uses a luciferin/luciferase system to measure the concentration of ATP and its consumption during the enzymatic reaction.
After 90 minutes, the reaction is quenched by adding 20 μl/well of KinaseGlo reagent (Promega V6713). After 10 minutes in the dark, the luminescence is read using a PHERAStar microplate reader (reading at 0.8 sec/well).

The term IC50 denotes the concentration at which inhibition is half-maximal. On to `CCOc1ccc(C(=O)CN2c3nc(N4C[C@@H]5C[C@H]4CO5)cc(=O)n3CC[C@H]2C(F)(F)F)cn1` [Compound 35, (8S)-9-[2-(6-Ethoxypyrid-3-yl)-2-oxoethyl]-2-(1S,4S)-2-oxa-5-azabicyclo[2.2.1]hept-5-yl-8-trifluoromethyl-6,7,8,9-tetrahydropyrimido[1,2-a]pyrimidin-4-one], for which the figures for the IC50 (in assay [1] (setting [2]); at human PI3Kα) were more than 210 nM and more than 10000 nM, respectively.

Regarding `Cc1c(C(=O)CN2c3nc(N4C[C@@H]5C[C@H]4CO5)cc(=O)n3CC[C@H]2C(F)(F)F)cnc(N)c1C` [Compound 36, (8S)-9-[2-(6-Amino-4,5-dimethylpyrid-3-yl)-2-oxoethyl]-2-(1S,4S)-2-oxa-5-azabicyclo[2.2.1]hept-5-yl-8-trifluoromethyl-6,7,8,9-tetrahydropyrimido[1,2-a]pyrimidin-4-one], the IC50 was 240 nM in assay [1] (setting [2]) and more than 10000 nM at human PI3Kα.

As for `O=C(CN1c2nc(N3C[C@@H]4C[C@H]3CO4)cc(=O)n2CC[C@H]1C(F)(F)F)c1ccc(OC(F)F)cc1` [Compound 37, (S)-9-[2-(4-Difluoromethoxyphenyl)-2-oxoethyl]-2-(1S,4S)-2-oxa-5-azabicyclo[2.2.1]hept-5-yl-8-trifluoromethyl-6,7,8,9-tetrahydropyrimido[1,2-a]pyrimidin-4-one], the IC50 in assay [1] (setting [2]) is 230 nM; at human PI3Kα, more than 10000 nM.

Turning to `O=C(CN1c2nc(N3C[C@@H]4C[C@H]3CO4)cc(=O)n2CC[C@H]1C(F)(F)F)c1cnc2c(c1)OCCN2` [Compound 38, (8S)-9-[2-(3,4-dihydro-2H-pyrido[3,2-b][1,4]oxazin-7-yl)-2-oxoethyl]-2-(1S,4S)-2-oxa-5-azabicyclo[2.2.1]hept-5-yl-8-trifluoromethyl-6,7,8,9-tetrahydropyrimido[1,2-a]pyrimidin-4-one], the figures for the IC50 (in assay [1] (setting [2]); on human PI3Kα) were 140 nM and 5770 nM, respectively.

`Cc1ncoc1C(=O)CN1c2nc(N3C[C@@H]4C[C@H]3CO4)cc(=O)n2CC[C@H]1C(F)(F)F` [Compound 39, (8S)-9-[2-(4-Methyloxazol-5-yl)-2-oxoethyl]-2-(1S,4S)-2-oxa-5-azabicyclo[2.2.1]hept-5-yl-8-trifluoromethyl-6,7,8,9-tetrahydropyrimido[1,2-a]pyrimidin-4-one]: the IC50 is 98 nM in assay [1] (setting [2]) and more than 10000 nM on human PI3Kα.

On to `O=C(CN1c2nc(N3C[C@@H]4C[C@H]3CO4)cc(=O)n2CC[C@H]1C(F)(F)F)c1ccc(F)c(F)c1` [Compound 40, (S)-9-[2-(3,4-Difluorophenyl)-2-oxoethyl]-2-(1S,4S)-2-oxa-5-azabicyclo[2.2.1]hept-5-yl-8-trifluoromethyl-6,7,8,9-tetrahydropyrimido[1,2-a]pyrimidin-4-one], for which the figures for the IC50 (in assay [1] (setting [2]); at human PI3Kα) were 80 nM and more than 10000 nM, respectively.

In the case of `O=C(CN1c2nc(N3C[C@@H]4C[C@H]3CO4)cc(=O)n2CC[C@H]1C(F)(F)F)c1ccc(N2CCOCC2)cc1` [Compound 41, (8S)-9-[2-(4-Morpholin-4-ylphenyl)-2-oxoethyl]-2-(1S,4S)-2-oxa-5-azabicyclo[2.2.1]hept-5-yl-8-trifluoromethyl-6,7,8,9-tetrahydropyrimido[1,2-a]pyrimidin-4-one], the IC50 amounted to 930 nM in assay [1] (setting [2]) and 4200 nM on human PI3Kα.

`N#Cc1ccc(C(=O)CN2c3nc(N4C[C@@H]5C[C@H]4CO5)cc(=O)n3CC[C@H]2C(F)(F)F)cc1` [Compound 42, 4-[2-((S)-8-(1S,4S)-2-Oxa-5-azabicyclo[2.2.1]hept-5-yl-6-oxo-2-trifluoromethyl-3,4-dihydro-2H,6H-pyrimido[1,2-a]pyrimidin-1-yl)acetyl]benzonitrile]: the results for the IC50 (in assay [1]; at human PI3Kα) were 80 nM and more than 10000 nM, respectively.

In the case of `Cc1ncsc1C(=O)CN1c2nc(N3C[C@@H]4C[C@H]3CO4)cc(=O)n2CC[C@H]1C(F)(F)F` [Compound 43, (8S)-9-[2-(4-methylthiazol-5-yl)-2-oxoethyl]-2-(1S,4S)-2-oxa-5-azabicyclo[2.2.1]hept-5-yl-8-trifluoromethyl-6,7,8,9-tetrahydropyrimido[1,2-a]pyrimidin-4-one], the IC50 is 42 nM in assay [1] (setting [2]) and more than 10000 nM at human PI3Kα.

Consider `O=C(CN1c2nc(N3C[C@@H]4C[C@H]3CO4)cc(=O)n2CC[C@H]1C(F)(F)F)c1cncc(Cl)c1` [Compound 44, (8S)-9-[2-(5-Chloropyrid-3-yl)-2-oxoethyl]-2-(1S,4S)-2-oxa-5-azabicyclo[2.2.1]hept-5-yl-8-trifluoromethyl-6,7,8,9-tetrahydropyrimido[1,2-a]pyrimidin-4-one], for which the IC50 in assay [1] (setting [2]) was 106 nM; on human PI3Kα, more than 10000 nM.

In the case of `COc1ccc(C(=O)CN2c3nc(N4C[C@@H]5C[C@H]4CO5)cc(=O)n3CC[C@H]2C(F)(F)F)cn1` [Compound 45, (8S)-9-[2-(6-methoxypyrid-3-yl)-2-oxoethyl]-2-(1S,4S)-2-oxa-5-azabicyclo[2.2.1]hept-5-yl-8-trifluoromethyl-6,7,8,9-tetrahydropyrimido[1,2-a]pyrimidin-4-one], the IC50 in assay [1] (setting [2]) is 112 nM; at human PI3Kα, more than 10000 nM.

Take `Cc1nocc1C(=O)CN1c2nc(N3C[C@@H]4C[C@H]3CO4)cc(=O)n2CC[C@H]1C(F)(F)F` [Compound 46, (8S)-9-[2-(3-Methylisoxazol-4-yl)-2-oxoethyl]-2-(1S,4S)-2-oxa-5-azabicyclo[2.2.1]hept-5-yl-8-trifluoromethyl-6,7,8,9-tetrahydropyrimido[1,2-a]pyrimidin-4-one]: the IC50 in assay [1] (setting [2]) is 398 nM; on human PI3Kα, more than 10000 nM.

As for `O=C(CN1c2nc(N3C[C@@H]4C[C@H]3CO4)cc(=O)n2CC[C@H]1C(F)(F)F)c1ccc2snnc2c1` [Compound 47, (8S)-9-(2-benzo[1,2,3]thiadiazol-5-yl-2-oxoethyl)-2-(1S,4S)-2-oxa-5-azabicyclo[2.2.1]hept-5-yl-8-trifluoromethyl-6,7,8,9-tetrahydropyrimido[1,2-a]pyrimidin-4-one], the results for the IC50 (in assay [1] (setting [2]); at human PI3Kα) were 13 nM and more than 10000 nM, respectively.

`O=C(CN1c2nc(N3C[C@@H]4C[C@H]3CO4)cc(=O)n2CC[C@H]1C(F)(F)F)c1ccc(F)cc1F` [Compound 48, (8S)-9-[2-(2,4-difluorophenyl)-2-oxoethyl]-2-(1S,4S)-2-oxa-5-azabicyclo[2.2.1]hept-5-yl-8-trifluoromethyl-6,7,8,9-tetrahydropyrimido[1,2-a]pyrimidin-4-one]: the IC50 in assay [1] (setting [2]) was 27 nM; on human PI3Kα, more than 10000 nM.

As to `CCC(O)(CC)CCN1c2nc(N3C[C@@H]4C[C@H]3CO4)cc(=O)n2CC[C@H]1C(F)(F)F` [Compound 49, (8S)-9-(3-ethyl-3-hydroxypentyl)-2-(1S,4S)-2-oxa-5-azabicyclo[2.2.1]hept-5-yl-8-trifluoromethyl-6,7,8,9-tetrahydropyrimido[1,2-a]pyrimidin-4-one], the IC50 in assay [1] (setting [2]) is 6 nM; on human PI3Kα, 2740 nM.

Take `CC(C)(O)CCN1c2nc(N3C[C@@H]4C[C@H]3CO4)cc(=O)n2CC[C@H]1C(F)(F)F` [Compound 50, (8S)-9-(3-hydroxy-3-methylbutyl)-2-(1S,4S)-2-oxa-5-azabicyclo[2.2.1]hept-5-yl-8-trifluoromethyl-6,7,8,9-tetrahydropyrimido[1,2-a]pyrimidin-4-one]: the IC50 in assay [1] (setting [2]) stood at 8 nM; at human PI3Kα, 4300 nM.

Take `Cn1nc(CN2c3nc(N4C[C@@H]5C[C@H]4CO5)cc(=O)n3CC[C@H]2C(F)(F)F)c2ccccc21` [Compound 51, (8S)-9-(1-methyl-1H-indazol-3-ylmethyl)-2-(1S,4S)-2-oxa-5-azabicyclo[2.2.1]hept-5-yl-8-trifluoromethyl-6,7,8,9-tetrahydropyrimido[1,2-a]pyrimidin-4-one]: the results for the concentration for half-maximal inhibition (IC50) (in assay [1] (setting [2]); on human PI3Kα) were 65 nM and more than 10000 nM, respectively.

As to `O=C(CN1c2nc(N3C[C@@H]4C[C@H]3CO4)cc(=O)n2CC[C@H]1C(F)(F)F)c1cnc(OCC2CC2)nc1` [Compound 52, (8S)-9-[2-(2-Cyclopropylmethoxypyrimidin-5-yl)-2-oxoethyl]-2-(1S,4S)-2-oxa-5-azabicyclo[2.2.1]hept-5-yl-8-trifluoromethyl-6,7,8,9-tetrahydropyrimido[1,2-a]pyrimidin-4-one], the results for the 50% inhibitory concentration (IC50) (in assay [1] (setting [2]); on human PI3Kα) were 130 nM and more than 10000 nM, respectively.

Consider `Cc1noc(C)c1C(=O)CN1c2nc(N3C[C@@H]4C[C@H]3CO4)cc(=O)n2CC[C@H]1C(F)(F)F` [Compound 53, (8S)-9-[2-(3,5-dimethylisoxazol-4-yl)-2-oxoethyl]-2-(1S,4S)-2-oxa-5-azabicyclo[2.2.1]hept-5-yl-8-trifluoromethyl-6,7,8,9-tetrahydropyrimido[1,2-a]pyrimidin-4-one], for which the IC50 in assay [1] (setting [2]) was 870 nM; at human PI3Kα it was more than 10000 nM.
